Results on six compounds are retold here after article PMC10743905, “Design, Synthesis, and In Vitro and In Vivo Bioactivity Studies of Hydrazide–Hydrazones of 2,4-Dihydroxybenzoic Acid” (International Journal of Molecular Sciences, 2023).

One data set concerns HepG2. The experiment in a line: MTT antiproliferative assay. The format is cell-based. Conditions: Homo sapiens, 24 h incubation, hepatocellular carcinoma. As to the method: The in vitro studies were performed on the reference line HEK-293 (human embryonic kidney cells, ATCC® CRL-1573™) and […] human cancer cell lines: 769-P (adenocarcinoma, renal cells, ATCC® CRL-1933™) and HepG2 (carcinoma, hepatocellular, ATCC® HB-8065™), H1563 (adenocarcinoma, non-smallcell lung cancer, ATCC® CRL-5875™), LN-229 (glioblastoma, ATCC® CRL-2611™). Cells from the 769-P and H1563 cell lines were cultured in RPMI-1640 growth medium (PAN Biotech GmbH, Aidenbach, Bayern, Germany), cells from the HEK-293 and HepG2 cell lines were cultured in EMEM growth medium (PAN Biotech GmbH, Aidenbach, Bayern, Germany), and cells from the LN-229 cell line were cultured in DMEM growth medium (PAN Biotech GmbH, Aidenbach, Bayern, Germany) in sterile 75 cm^2 culture phalcones. Fetal bovine serum (PAN Biotech GmbH, Aidenbach, Bayern, Germany) at 10% of growth medium and antibiotics (Sigma-Aldrich, Poland) (2.5 µg/mL amphotericin B, 100 µg/mL penicillin, and 100 µg/mL streptomycin) were added to all media. Cells were cultured at 37 °C in an incubator with 5% CO2 flow until a cell layer was formed. Following this, the medium was removed, and the cells were washed with 0.25% trypsin solution with 2.21 mM EDTA (Corning Incorporated, Corning, NY, USA) in order to completely remove fetal bovine serum containing trypsin inhibitor. Finally, 6 mL of complete growth medium was added, and the cells were aspirated by gentle pipetting.
The determination of inhibitory concentration (IC50) in the HEK-293, 769-P, HepG2, H1563, and LN-229 cell cultures for selected hydrazide–hydrazones was performed using the MTT assay procedure. This test was performed according to the MTT Assay ECVAM n°17 protocol manual prepared by the European Centre for the Validation of Alternative Methods (ECVAM), an entity that aims to reduce in vivo testing in favor of in vitro and in silico methods. To 96-well sterile plates, 100 μL of cell suspensions, prepared in the appropriate medium at a concentration of 3 × 10^5 cells/mL, was added using a multichannel pipette. To achieve cell adhesion to the bottom of the plates, cells were incubated for 24 h at 37 °C with 5% CO2 flow and 90% humidity. […] After this time, all medium was removed, 100 μL of DMSO (Corning Incorporated, Corning, NY, USA) was added to each well, and absorbance measurements were performed at 550 nm using a Power Weave xs spectrophotometric microplate reader (BioTek, Winooski, VT, USA). The decrease in absorbance is equivalent to the decrease in MTT formazan production, which is due to the decrease in mitochondrial dehydrogenase activity and indicates a cytotoxic effect from the tested substances. Cell viability is expressed as a percentage as the ratio of the absorbance of test substance-treated cells to the untreated cells. […]
Background: Formazan colour is commonly taken as a measure of viable cells.

A short description of another data set: in vivo. Conditions: in vivo. As to the method: Wild-type AB strain zebrafish (Danio rerio) were housed in the Experimental Medicine Centre of Medical University of Lublin (Lublin, Poland), where all the experimental procedures on embryos and larvae were carried out. The animals were kept on a recirculating water supply at 26 ± 1 °C and a 10/14 dark–light cycle, and they were fed with artemia and commercial feed. Danio rerio embryos were obtained from females between 4 and 15 months of age. […] In order to avoid genetic bias in the study, eggs were randomly collected from at least three breeding groups, rinsed, and placed in Petri dishes in the cultured medium, which for Danio rerio is E3 solution. […] In accordance with the legislation of the European Union and Poland, the experiments performed on the earliest life-stages of Danio rerio until 120 h post-fertilization (120 hpf), not defined as protected, are not subject to regulations for animal experimentation.
They address the testing of chemicals using the Fish Embryo Acute Toxicity (FET) test with the species Danio rerio.
Immediately after fertilization, eggs were placed in sterile 24-well plates and exposed for 96 h to at least five concentrations of the test chemical, ranging from 1 to 500 µM and prepared ex tempore on each day of exposure, according to the principle of one egg per well and one concentration per plate. In each plate, 20 wells were filled with the solutions of the tested substance, and 4 wells of the last column were a negative internal control with E3 medium. Each well was filled with 2 mL of solution. Positive control plates were also prepared according to this scheme with 4 mg/L of 3,4-dichloroaniline (Sigma-Aldrich, Poznań, Poland) and a negative control with E3, and a negative solvent control with 1% DMSO, which was used as a solvent for the tested substances. At four time points, microscopic observations were made every 24 h. As indicators of mortality (so-called terminal observations; when at least one of these occurs, embryonic death is declared), the following were recorded: the coagulation of embryos, a lack of somite formation, a lack of detachment of the tail from the yolk sac and a lack of a heartbeat, which was observed from the 48th hour of the study. To confirm the absence of a heartbeat, a microscopic observation was conducted at 80× magnification for one minute. Then, the solutions of the tested chemicals, to maintain their constant composition throughout the test, were replaced with fresh ones, and the plates were incubated for another 24 h in an incubator at 26 ± 1 °C. […] In addition, a quantitative and qualitative summary of the morphological and physiological abnormalities that occurred in the tested Danio rerio embryos and larvae was also made. These included yolk sac edema, pericardial edema, spinal flexure, head deformities, tail deformities, developmental delay defined as a lack of hatching success for 96 hpf larvae, and also bradycardia.
Regression analysis was performed with Excel, and the above-mentioned values were obtained from the linear type of regression analysis. […] The results obtained from the heart rate study of 96 hpf zebrafish larvae were subjected to statistical analysis using one-way analysis of variance (ANOVA) and a post hoc Bonferroni test. The significance level was taken as p < 0.05.

pIC50: −log10 of the molar value. Values joined by “and” are separate entries in the source; they are usually repeats but may differ in a detail not shown here. Equal entries are not always repeated. Where only a bound is given, the exact number is not on record here.

The pIC50 is the negative decadic logarithm of the IC50, by convention in mol/L. Read a low pIC50 as a large IC50. In turn, `O=C(N/N=C/c1ccccc1[N+](=O)[O-])c1ccc(O)cc1O` [Compound 19, 2,4-dihydroxy-N-[(2-nitrophenyl)methylidene]benzohydrazide] gave a pIC50 in the data set with HepG2 of less than 3.30.

What is called LC50 is the concentration lethal to half of the exposed cells or organisms. Low values mean a more lethal substance, high ones a less lethal substance. As to `O=C(N/N=C/c1cccc([N+](=O)[O-])c1)c1ccc(O)cc1O` [Compound 20, 2,4-dihydroxy-N-[(3-nitrophenyl)methylidene]benzohydrazide], in the data set with HepG2, the pIC50 was less than 3.30. Besides, the LC50 at 96 h in “in vivo” is 34.8 mM and 10500 µg/mL.

In the data set on HepG2, `O=C(N/N=C/c1ccc([N+](=O)[O-])cc1)c1ccc(O)cc1O` [Compound 21, 2,4-dihydroxy-N-[(4-nitrophenyl)methylidene]benzohydrazide] had a pIC50 of 5.11. Also, the LC50 at 96 h in “in vivo” was 370 µM and 110 µg/mL.

In the case of `O=C(N/N=C/c1ccccc1Cl)c1ccc(O)cc1O` [Compound 22, N-[(2-chlorophenyl)methylidene]-2,4-dihydroxybenzohydrazide], the LC50 at 96 h in “in vivo” is 56.6 µM and 16.4 µg/mL.

Regarding `O=C(N/N=C/c1ccccc1Br)c1ccc(O)cc1O` [Compound 23, N-[(2-bromophenyl)methylidene]-2,4-dihydroxybenzohydrazide], the LC50 at 96 h in the data set “in vivo” is 85.6 µM and 30.4 µg/mL.

In turn, `O=C(N/N=C/c1ccccc1F)c1ccc(O)cc1O` [Compound 24, N-[(2-fluorophenyl)methylidene]-2,4-dihydroxybenzohydrazide] showed a pIC50 with HepG2 of less than 3.30. Also, in the data set “in vivo”, the LC50 at 96 h was 4.24 mM and 1160 µg/mL.
